{"source": "patent US6828144B2", "about": "“Method of observing vasculogenesis in vitro using cultured allantois” (Wisconsin Alumni Research Foundation, priority 1996, dated 2004)", "tested_on": "headfold-stage allantoic explants", "conditions": "for formation / retention of vascular channels in explants: 5% FCS, feeding at 24 hour intervals, by 72 hours", "note": "Where two headings read alike, the source gives them in different places.", "experimental": "At the onset of culture, or at varying times thereafter, known test compounds, such as Vascular Endothelial Growth Factor (VEGF, R & D Systems, Minneapolis, Minn.), are prepared according to the manufacturer's instructions and added to the cultures in concentrations recommended by the manufacturer (e.g., 1-20 ng VEGF/ml culture medium) or, in the case of unknown test compounds, in varying concentrations to determine the one that either inhibits or enhances vasculogenesis.\nTo test that possibility, recombinant VEGE (1-10 ng/ml culture medium) was added to explants at the start of culture in 5% FOS.\nFor survival and vascularization, allantoises were mouth-aspirated into a hand-pulled glass microcapillary (K. M. Downs and R. L. Gardner, supra, 1995; K. M. Downs, et al., supra, 1998) and either cultured in suspension as previously described (K. M. Downs, et al., supra, 1998) or placed individually (i) into wells of 24-well tissue-culture plates (Falcon 3047), (ii) onto glass cover slips (12 mm, Fisher) coated for 30 minutes in filtered (0.45 μm, cellulose acetate) poly-D-lysine (1 mg/ml double processed tissue culture water; Sigma) inserted into wells of 24-well tissue-culture plates and rinsed 34 times with sterile water, (iii) into sterile 8-well plastic chamber slides (Lab-Tek, Nunc), or (iv) into 8-well glass chamber slides some of which were coated in poly-D-lysine. Allantoises were cultured in 0.5 ml (24-well tissue-culture dishes or Falcon culture tubes (K. M. Downs and R. L. Gardner, supra, 1995) or 0.4 ml (8-well chamber slides) of culture medium (Dulbecco's modified Eagle's medium (DMEM) containing either equal parts of immediately-centrifuged and heat-inactivated rat serum as previously described (K. M. Downs and R. L. Gardner, supra, 1995) or 5, 10 and 20% heat-inactivated fetal calf serum (Gibco-BRL; frozen and thawed twice before using) for 24-72 hours at 37° C. in 6.2% CO2 in air. For culture longer than 24 hours, allantoises were given completely fresh medium at 24-hour intervals. In some experiments, erythrosin B (Fisher; 0.04% in phosphate-buffered saline (PBS); H. J. Phillips and J. E. Terryberry, Exp. Cell Res. 13:341-347, 1957) was diluted 1:1 in dissection medium to verify allantoic cell viability. Vascular Endothelial Growth Factor (R & D System,s Minneapolis, Minn.) was prepared according to the manufacturer's instructions and was added to culture medium containing 5% FCS in concentrations of 1-20 ng/ml.\nTo test that possibility, recombinant VEGF (1-10 ng/ml culture medium) was added to explants at the start of culture in 5% FCS."}
{"substance": "VEGF", "values": [{"measurement": "formation / retention of vascular channels in explants", "setting": "VEGF 1 ng/ml", "result": "devoid of such channels"}, {"measurement": "cell survival (cell retention)", "setting": "VEGF 2-10 ng/ml in 5% FCS, untreated explants in FCS alone 36%", "result": 78, "unit": "%"}, {"measurement": "formation / retention of vascular channels in explants", "setting": "VEGF 2-10 ng/ml, added at start of culture", "result": "retention of Flk-1 containing vascular channels and overlying VCAM-1 positive cells"}, {"measurement": "formation / retention of vascular channels in explants", "setting": "VEGF 2-10 ng/ml, added at start of culture, listed as Vascular Endothelial Growth Factor", "result": "formation of many vascular channels containing Flk-1 and Flt-1"}, {"measurement": "survival of angioblasts and morphogenesis into vessels", "setting": "explants cultured in low serum", "result": "promoted their survival and morphogenesis into vessels"}]}
